Experimental data as given in patent US20070207993A1, “Molybdenum carbonyl complexes for treating rheumatoid arthritis and other inflammatory diseases” (Alfama - Investigacao e Desenvolvimetno De Productos …, priority 2005, published 2007).

Experiment: CO release in the presence of reactive oxygen species (TBHP, H2O2, KO2)
Type: physicochemical
Settings: 25° C., dark; for Equivalents of CO2 released, H2O2 / Equivalents of CO released, H2O2: H2O2 100:1, water; for Equivalents of CO2 released, KO2 / Equivalents of CO released, KO2: KO2 100:1, THF; for Equivalents of CO2 released, TBHP / Equivalents of CO released, TBHP: TBHP 100:1, water
Description: The studies were done using the same method and apparatus described in Example 7 with the following modifications: RPMI/FBS was replaced by double distilled water in the experiments with H2O2 and TBHP and by tetrahydrofuran (THF) for the experiments with KO2; the temperature was kept at 25° C. The concentration of Compound I.1 was approximately 1 mM and the ration of concentrations of H2O2, TBHP and KO2 relative to Compound I.1 was 100:1. The amount of CO2 generated was also measured in the same experiment to ascertain the concurrent oxidation of coordinated CO. TBHP was added from a 70% aqueous solution and H2O2 from a 30% aqueous solution.

## O=[C][Mo]([Br])([C]=O)([C]=O)([C]=O)[C]=O [Compound I.1]
1 h
  Equivalents of CO2 released, H2O2: 0.41 equivalents
  Equivalents of CO released, H2O2: 1.08 equivalents
  Equivalents of CO2 released, KO2: 0.00 equivalents
  Equivalents of CO released, KO2: 1.94 equivalents
  Equivalents of CO2 released, TBHP: 0.51 equivalents
  Equivalents of CO released, TBHP: 2.51 equivalents
3 h
  Equivalents of CO2 released, H2O2: 0.80 equivalents
  Equivalents of CO released, H2O2: 1.49 equivalents
  Equivalents of CO2 released, KO2: 0.00 equivalents
  Equivalents of CO released, KO2: 3.22 equivalents
  Equivalents of CO2 released, TBHP: 0.95 equivalents
  Equivalents of CO released, TBHP: 3.77 equivalents
5 h
  Equivalents of CO2 released, H2O2: 0.90 equivalents
  Equivalents of CO released, H2O2: 1.46 equivalents
  Equivalents of CO2 released, KO2: 0.00 equivalents
  Equivalents of CO released, KO2: 2.54 equivalents
  Equivalents of CO2 released, TBHP: 1.07 equivalents
  Equivalents of CO released, TBHP: 3.94 equivalents
24 h
  Equivalents of CO2 released, H2O2: 0.89 equivalents
  Equivalents of CO released, H2O2: 1.43 equivalents
  Equivalents of CO2 released, KO2: 0.00 equivalents
  Equivalents of CO released, KO2: 2.29 equivalents
  Equivalents of CO2 released, TBHP: 1.13 equivalents
  Equivalents of CO released, TBHP: 3.93 equivalents
